{"source": "patent US20040009126A1", "about": "“Inhalation system for prevention and treatment of intracellular infections” (priority 2002, published 2004)", "settings": "mice, intratracheal administration, lungs", "source_text": "FIG. 2 is a graphical representation of the biodistribution of ciprofloxacin in the lungs upon administration of ciprofloxacin in liposomal form by inhalation and in free form by inhalation and orally.\nThe distribution following IT administration was compared with the distribution obtained in the lungs following an oral delivery of ciprofloxicin."}
{"smiles": "O=C(O)c1cn(C2CC2)c2cc(N3CCNCC3)c(F)cc2c1=O", "note": "[free ciprofloxicin, ciprofloxicin]", "values": [{"measurement": "lung level of ciprofloxicin over time", "result": "negligible after one hour"}]}
